Target: CDK2/Cyclin E1 (Homo sapiens (Human), UniProt P24941)
Experiment: CDK2/Cyclin E1 HTRF enzyme activity assay (Example A)
Assay type: biochemical
Details: 1 mM ATP
Method: Assays were conducted in white 384-well polystyrene plates in a final reaction volume of 8 μL. […] HTRF signals were read after 1 hour at room temperature on a PHERAstar FS plate reader (BMG Labtech). Data was analyzed with IDBS XLFit and GraphPad Prism 5.0 software using a three or four parameter dose response curve to determine IC50 for each compound.

SMILES	IC50
Cc1nc(-c2nc(NC3CCN(S(C)(=O)=O)CC3)ncc2C(F)(F)F)cn1-c1ccc(N2CCNCC2)cc1F [Example 111, 4-(1-(2-Fluoro-4-(piperazin-1-yl)-phenyl)-2-methyl-1H-imidazol-4-yl)-N-(1-(methyl-sulfonyl)piperidin-4-yl)-5-(trifluoro-methyl)pyrimidin-2-amine]	≤ 50 nM
CC(C)NCc1cc(F)c(-n2cnc(-c3nc(N[C@@H]4CCN(S(C)(=O)=O)C[C@H]4F)ncc3C(F)(F)F)c2)c(Cl)c1 [Example 405, 4-(1-(2-Chloro-6-fluoro-4-((isopropylamino)methyl)phenyl)-1H-imidazol-4-yl)-N-((3R,4R)-3-fluoro-1-(methylsulfonyl)piperidin-4-yl)-5-(trifluoromethyl)pyrimidin-2-amine]	≤ 50 nM
C[C@]1(O)CCN(Cc2ccc(-n3cnc(-c4nc(NC5CCN(S(C)(=O)=O)CC5)ncc4C(F)(F)F)c3)c(C(F)(F)F)c2)C1 [Example 261, (S)-3-Methyl-1-(4-(4-(2-((1-(methylsulfonyl)piperidin-4-yl)amino)-5-(trifluoromethyl)pyrimidin-4-yl)-1H-imidazol-1-yl)-3-(trifluoromethyl)benzyl) pyrrolidin-3-ol]	≤ 50 nM
CN1CCN(Cc2ccc(-n3cnc(-c4nc(NC5CCN(S(C)(=O)=O)CC5)ncc4C(F)(F)F)c3)c(C#N)c2)CC1 [Example 344, 5-((4-Methylpiperazin-1-yl)methyl)-2-(4-(2-((1-(methylsulfonyl)piperidin-4-yl)amino)-5-(trifluoromethyl)pyrimidin-4-yl)-1H-imidazol-1-yl)benzonitrile]	≤ 50 nM
COC1CN(Cc2ccc(-n3cc(-c4nc(NC5CCN(S(C)(=O)=O)CC5)ncc4C(F)(F)F)nc3C)c(F)c2)C1 [Example 353, 4-(1-(2-Fluoro-4-((3-methoxyazetidin-1-yl)methyl)phenyl)-2-methyl-1H-imidazol-4-yl)-N-(1-(methylsulfonyl)piperidin-4-yl)-5-(trifluoromethyl)pyrimidin-2-amine]	≤ 50 nM
CNCc1ccc(-n2cnc(-c3nc(N[C@@H]4CCN(S(C)(=O)=O)C[C@H]4F)ncc3C(F)(F)F)c2)c(Cl)c1 [Example 225, 4-(1-(2-Chloro-4-((methylamino)-methyl)phenyl)-1H-imidazol-4-yl)-N-((3R,4R)-3-fluoro-1-(methylsulfonyl)-piperidin-4-yl)-5-(trifluoromethyl)-pyrimidin-2-amine]	≤ 50 nM
Cc1nc(-c2nc(NC3CCN(S(C)(=O)=O)CC3)ncc2C(F)(F)F)cn1-c1ccc(N2CCC(N3CCC(O)C3)CC2)cc1F (centres unmarked) [Example 455, 1-(1-(3-Fluoro-4-(2-methyl-4-(2-((1-(methylsulfonyl)piperidin-4-yl)amino)-5-(trifluoromethyl)pyrimidin-4-yl)-1H-imidazol-1-yl)phenyl)piperidin-4-yl)pyrrolidin-3-ol]	≤ 50 nM
C[C@@H]1CN(S(=O)(=O)c2cn(C)cn2)CC[C@@H]1Nc1ncc(C(F)(F)F)c(-c2cn(CC(F)F)cn2)n1 [Example 337, 4-(1-(2,2-Difluoroethyl)-1H-imidazol-4-yl)-N-((3R,4S)-3-methyl-1-((1-methyl-1H-imidazol-4-yl)sulfonyl)piperidin-4-yl)-5-(trifluoromethyl)pyrimidin-2-amine]	≤ 50 nM
Cc1nc(-c2nc(NC3CCN(S(C)(=O)=O)CC3)ncc2C(F)(F)F)cn1-c1ccc(CN2CCC2)cc1Cl [Example 284, 4-(1-(4-(Azetidin-1-ylmethyl)-2-chlorophenyl)-2-methyl-1H-imidazol-4-yl)-N-(1-(methylsulfonyl)piperidin-4-yl)-5-(trifluoromethyl)pyrimidin-2-amine]	≤ 50 nM
Cn1cc(S(=O)(=O)N2CCC(Nc3ncc(C(F)(F)F)c(-c4ncn(C)c4Br)n3)CC2)cn1 [Example 383, 4-(5-Bromo-1-methyl-1H-imidazol-4-yl)-N-(1-((1-methyl-1H-pyrazol-4-yl)sulfonyl)piperidin-4-yl)-5-(trifluoromethyl)pyrimidin-2-amine]	≤ 50 nM
CN1CCN(c2nccc(-n3cnc(-c4nc(NC5CCN(S(C)(=O)=O)CC5)ncc4C(F)(F)F)c3)c2C#N)CC1 [Example 316, 2-(4-Methylpiperazin-1-yl)-4-(4-(2-((1-(methylsulfonyl)piperidin-4-yl)amino)-5-(trifluoromethyl)pyrimidin-4-yl)-1H-imidazol-1-yl)nicotinonitrile]	≤ 50 nM
CS(=O)(=O)N1CCC(Nc2ncc(C(F)(F)F)c(-c3cn(-c4ccc(CN5C6COCC5C6)cc4Cl)cn3)n2)CC1 [Example 214, 4-(1-(4-((3-Oxa-6-azabicyclo[3.1.1]-heptan-6-yl)methyl)-2-chlorophenyl)-1H-imidazol-4-yl)-N-(1-(methylsulfonyl)-piperidin-4-yl)-5-(trifluoromethyl)-pyrimidin-2-amine]	≤ 50 nM
Cc1nc(-c2nc(NC3CCN(S(C)(=O)=O)CC3)ncc2C(F)(F)F)cn1-c1ccc(N2CCC[C@H](N(C)C)C2)cc1F [Example 106, (S)-4-(1-(4-(3-(Dimethylamino)-piperidin-1-yl)-2-fluorophenyl)-2-methyl-1H-imidazol-4-yl)-N-(1-(methyl-sulfonyl)piperidin-4-yl)-5-(trifluoro-methyl)pyrimidin-2-amine]	≤ 50 nM

The remaining lines, values ahead:

IC50	SMILES
≤ 50 nM	CCNCc1ccc(-n2cnc(-c3nc(NC4CCN(S(C)(=O)=O)CC4)ncc3C(F)(F)F)c2)c(Cl)c1 [Example 189, 4-(1-(2-Chloro-4-((ethylamino)methyl)-phenyl)-1H-imidazol-4-yl)-N-(1-(methyl-sulfonyl)piperidin-4-yl)-5-(trifluoro-methyl)pyrimidin-2-amine]
≤ 50 nM	CS(=O)(=O)N1CCC(Nc2ncc(C(F)(F)F)c(-c3cn(-c4ccc(CO)cc4Cl)cn3)n2)CC1 [Example 231, (3-Chloro-4-(4-(2-((1-(methylsulfonyl)piperidin-4-yl)amino)-5-(trifluoromethyl)pyrimidin-4-yl)-1H-imidazol-1-yl)phenyl)methanol]
≤ 50 nM	CCNCc1ccc(-n2cc(-c3nc(NC4CCN(S(C)(=O)=O)CC4)ncc3C(F)(F)F)nc2C)c(F)c1 [Example 359, 4-(1-(4-((Ethylamino)methyl)-2-fluorophenyl)-2-methyl-1H-imidazol-4-yl)-N-(1-(methylsulfonyl)piperidin-4-yl)-5-(trifluoromethyl)pyrimidin-2-amine]
≤ 50 nM	CS(=O)(=O)N1CCC(Nc2ncc(C(F)(F)F)c(-c3cn(-c4c(F)cccc4Cl)cn3)n2)CC1 [Example 54, 4-(1-(2-Chloro-6-fluorophenyl)-1H-imidazol-4-yl)-N-(1-(methylsulfonyl)piperidin-4-yl)-5-(trifluoromethyl)pyrimidin-2-amine]
≤ 50 nM	CS(=O)(=O)N1CCC(Nc2ncc(C(F)(F)F)c(-c3cn(-c4cccc(-c5cccnc5)c4Cl)cn3)n2)CC1 [Example 97, 4-(1-(2-chloro-3-(Pyridin-3-yl)phenyl)-1H-imidazol-4-yl)-N-(1-(methylsulfonyl)piperidin-4-yl)-5-(trifluoromethyl) pyrimidin-2-amine]
≤ 50 nM	CN1CCN(c2ccc(-n3cnc(-c4nc(NC5CCN(S(C)(=O)=O)CC5)ncc4C(F)(F)F)c3)c(Cl)c2)C1=O [Example 147, 1-(3-Chloro-4-(4-(2-((1-(methyl-sulfonyl)piperidin-4-yl)amino)-5-(trifluoromethyl)-pyrimidin-4-yl)-1H-imidazol-1-yl)-phenyl)-3-methyl-imidazolidin-2-one]
≤ 50 nM	CS(=O)(=O)N1CCC(Nc2ncc(C(F)(F)F)c(-c3cn(-c4ccccc4CO)cn3)n2)CC1 [Example 237, (2-(4-(2-((1-(Methylsulfonyl)piperidin-4-yl)amino)-5-(trifluoromethyl)pyrimidin-4-yl)-1H-imidazol-1-yl)phenyl)methanol]
≤ 50 nM	CS(=O)(=O)N1CCC(Nc2ncc(C(F)(F)F)c(-c3cn(-c4ccc(CN5CC[C@H](O)C5)cc4Cl)cn3)n2)CC1 [Example 206, (S)-1-(3 -Chloro-4-(4-(2-((1-(methyl-sulfonyl)piperidin-4-yl)amino)-5-(trifluoromethyl)-pyrimidin-4-yl)-1H-imidazol-1-yl)benzyl)-pyrrolidin-3-ol]
≤ 50 nM	CNC(C)c1ccc(-n2cnc(-c3nc(NC4CCN(S(C)(=O)=O)CC4)ncc3C(F)(F)F)c2)c(Cl)c1 (single isomer, unassigned) [Example 275, 4-(1-(2-Chloro-4-(1-(methylamino)ethyl)phenyl)-1H-imidazol-4-yl)-N-(1-(methylsulfonyl)piperidin-4-yl)-5-(trifluoromethyl)pyrimidin-2-amine]
≤ 50 nM	CCNCc1cccc(-n2cnc(-c3nc(NC4CCN(S(C)(=O)=O)CC4)ncc3C(F)(F)F)c2)c1Cl [Example 361, 4-(1-(2-Chloro-3-((ethylamino)methyl)phe-nyl)-1H-imidazol-4-yl)-N-(1-(methylsulfonyl)piperidin-4-yl)-5-(trifluoromethyl)pyrimi-din-2-amine]
≤ 50 nM	CC1CN(Cc2ccc(-n3cnc(-c4nc(NC5CCN(S(C)(=O)=O)CC5)ncc4C(F)(F)F)c3)c(Cl)c2F)C1 [Example 270, 4-(1-(2-Chloro-3-fluoro-4-((3-methylazetidin-1-yl)methyl)phenyl)-1H-imidazol-4-yl)-N-(1-(methylsulfonyl)piperidin-4-yl)-5-(trifluoromethyl)pyrimidin-2-amine]
≤ 50 nM	CN(C)c1nccc(-n2cnc(-c3nc(NC4CCN(S(C)(=O)=O)CC4)ncc3C(F)(F)F)c2)c1Cl [Example 321, 4-(1-(3-Chloro-2-(dimethylamino)pyridin-4-yl)-1H-imidazol-4-yl)-N-(1-(methylsulfonyl)piperidin-4-yl)-5-(trifluoromethyl)pyrimidin-2-amine]
≤ 50 nM	C[C@@]1(O)CCN(Cc2ccc(-n3cnc(-c4nc(NC5CCN(S(C)(=O)=O)CC5)ncc4C(F)(F)F)c3)c(Cl)c2)C1 [Example 181, (R)-1-(3-Chloro-4-(4-(2-((1-(methylsulfonyl)piperidin-4-yl)amino)-5-(trifluoromethyl)pyrimidin-4-yl)-1H-imidazol-1-yl)benzyl)-3-methylpyrrolidin-3-ol]
